# Laboratory results as given in patent publication US4476120A, “Thiolic derivatives of erythromycin having therapeutic activity, and pharmaceutical compositions containing them” (Sigma Tau Indistrie Farmaceutiche Riunites, p.A, priority 1982, dated 1984).
# Assays:
# [1] = C.A. 93 38279f; cited from earlier work
# E. cloacae SS 07 = type: cell-based; settings: Brain Heart Infusion, estolate and RV11-RV15 previously hydrolized, unit assumed
# S. heidelberg SS 18 = type: cell-based; settings: Brain Heart Infusion, estolate and RV11-RV15 previously hydrolized, unit assumed
# in vivo = settings: rat, po, 100 mg/kg, Hematic levels in the rat
# E. aerogenes SS 011 = type: cell-based; settings: Brain Heart Infusion, estolate and RV11-RV15 previously hydrolized, unit assumed
# Citrobacter SS 09 = type: cell-based; settings: Brain Heart Infusion, estolate and RV11-RV15 previously hydrolized, unit assumed
# B. subtilis SS 127 = type: cell-based; settings: Brain Heart Infusion, estolate and RV11-RV15 previously hydrolized, unit assumed
# [2] = tested on: Strept. haemolyticus SS 17; type: cell-based; settings: Brain Heart Infusion, estolate and RV11-RV15 previously hydrolized, unit assumed
# [3] = Histological examination of bronchi after SO2 inhalation; type: in vivo, Sprague Dawley male rats; settings: oral, 500 mg/kg
# Staph. albus SS 03 = type: cell-based; settings: Brain Heart Infusion, estolate and RV11-RV15 previously hydrolized, unit assumed
# Cl. tetani SS 17 = type: cell-based; settings: Brain Heart Infusion, estolate and RV11-RV15 previously hydrolized, unit assumed
# S. infantis SS 08 = type: cell-based; settings: Brain Heart Infusion, estolate and RV11-RV15 previously hydrolized, unit assumed
# E. coli SS 05 = type: cell-based; settings: Brain Heart Infusion, estolate and RV11-RV15 previously hydrolized, unit assumed
# [4] = Mucolytic activity: obstruction of the bronchial tract after SO2 inhalation; type: in vivo, Sprague Dawley male rats; settings: oral, 500 mg/kg; SO2, 15 days
# C. diphtheriae SS 19 = type: cell-based; settings: Brain Heart Infusion, estolate and RV11-RV15 previously hydrolized, unit assumed
# Kl. pneumoniae SS 04 = type: cell-based; settings: Brain Heart Infusion, estolate and RV11-RV15 previously hydrolized, unit assumed
# Source text: (§1) In the following table I the MIC/ml values are indicated corresponding to the lowest concentration capable of inducing a complete inhibition of the bacterial development.
# H. tubercolosis SS 03 = type: cell-based; settings: Brain Heart Infusion, estolate and RV11-RV15 previously hydrolized, unit assumed
# Source text: as §1
# B. anthranis SS 09 = type: cell-based; settings: B. anthranis SS 09 (14 bis); Brain Heart Infusion; estolate and RV11-RV15 previously hydrolized; unit assumed
# D. pneumoniae SS 23 [5] = assay: Experimental infection induced by D. pneumoniae SS 23; type: in vivo, Swiss white mice; settings: Streptococcus pneumoniae, SS23, in Mus musculus, po, 168 h, os; D. pneumoniae SS 23; mg/kg of erythromycin; survival after 7 days; read-out: ED50 (reliability limits)
# Protocol: (§2) Swiss white mice of 20 g body weight were used, infected by parenteral administration of lethal amounts of pathogenic […] of Staph. aureus SS 07 and D. pneumoniae SS 23.
# (§3) The antibiotics were administered at the time of injecting the infecting germ and 6 and 24 hours later. On the basis of the survival after 7 days, the ED50 values were determined, as reported in the following table II and III, wherein the reliability limits are indicated in brackets.
# N. gonorreae SS 27 = type: cell-based; settings: Brain Heart Infusion, estolate and RV11-RV15 previously hydrolized, unit assumed
# Staph. aureus SS 08 = type: cell-based; settings: Brain Heart Infusion, estolate and RV11-RV15 previously hydrolized, unit assumed
# H. pertussis SS 03 = type: cell-based; settings: Brain Heart Infusion, estolate and RV11-RV15 previously hydrolized, unit assumed
# Kl. aerogenes SS 71 = type: cell-based; settings: Brain Heart Infusion, estolate and RV11-RV15 previously hydrolized, unit assumed
# D. pneumoniae SS 23 [6] = type: cell-based; settings: Brain Heart Infusion, estolate and RV11-RV15 previously hydrolized, unit assumed
# H. influentiae SS 02 = type: cell-based; settings: Brain Heart Infusion, estolate and RV11-RV15 previously hydrolized, unit assumed
# Pr. mirabilis SS 09 = type: cell-based; settings: Brain Heart Infusion, estolate and RV11-RV15 previously hydrolized, unit assumed
# C. albicans SS 04 = type: cell-based; settings: Brain Heart Infusion, estolate and RV11-RV15 previously hydrolized, unit assumed
# Strept. faecalis SS 19 = type: cell-based; settings: Brain Heart Infusion, estolate and RV11-RV15 previously hydrolized, unit assumed
# B. subtilis ATCC 6633 = type: cell-based; settings: Brain Heart Infusion, estolate and RV11-RV15 previously hydrolized, unit assumed
# E. coli SS 07 = type: cell-based; settings: Brain Heart Infusion, estolate and RV11-RV15 previously hydrolized, unit assumed
# Staph. aureus SS 09 = type: cell-based; settings: Brain Heart Infusion, estolate and RV11-RV15 previously hydrolized, unit assumed
# Sr. marcescens SS 03 = type: cell-based; settings: Brain Heart Infusion, estolate and RV11-RV15 previously hydrolized, unit assumed
# E. coli SS 06 = type: cell-based; settings: Brain Heart Infusion, estolate and RV11-RV15 previously hydrolized, unit assumed
# [7] = Hematic levels in the healthy volunteer; type: in vivo, healthy volunteers; settings: 500 mg of erythromycin, average; for Hematic levels in the healthy volunteer: oral
# Source text: For the dosing, the microbiological method using a B. subtilis strain was adopted.
# N. meningitidis SS 04 = type: cell-based; settings: Brain Heart Infusion, estolate and RV11-RV15 previously hydrolized, unit assumed
# Staph. albus SS 04 = type: cell-based; settings: Brain Heart Infusion, estolate and RV11-RV15 previously hydrolized, unit assumed
# Staph. aureus SS 07 = assay: Experimental infection induced by Staph. aureus SS 07; type: in vivo, Swiss white mice; settings: Staphylococcus aureus, SS07, in Mus musculus, po, 168 h, os; Staph. aureus SS 07; mg/kg of erythromycin; survival after 7 days; read-out: ED50 (reliability limits)
# Protocol: as §2, §3
# Pr. vulgaris SS 10 = type: cell-based; settings: Brain Heart Infusion, estolate and RV11-RV15 previously hydrolized, unit assumed
# S. lutea ATCC 9341 = type: cell-based; settings: Brain Heart Infusion, estolate and RV11-RV15 previously hydrolized, unit assumed
# Br. melitensis SS 19 = type: cell-based; settings: unit assumed
# [8] = tested on: Strept. haemolyticus SS 18; type: cell-based; settings: Brain Heart Infusion, estolate and RV11-RV15 previously hydrolized, unit assumed
# Citrobacter SS 05 = type: cell-based; settings: Brain Heart Infusion, estolate and RV11-RV15 previously hydrolized, unit assumed
# Br. abortus SS 7 = type: cell-based; settings: Brain Heart Infusion, estolate and RV11-RV15 previously hydrolized, unit assumed
# Ps. aeruginosa SS 10 = type: cell-based; settings: Brain Heart Infusion, estolate and RV11-RV15 previously hydrolized, unit assumed
# E. coli SS 04 = type: cell-based; settings: Brain Heart Infusion, estolate and RV11-RV15 previously hydrolized, unit assumed
# [9] = in vivo, po, 100 mg/kg, 6 h
# B. cereus ATCC 11778 = type: cell-based; settings: Brain Heart Infusion, estolate and RV11-RV15 previously hydrolized, unit assumed
# B. anthranis SS 08 = type: cell-based; settings: Brain Heart Infusion, estolate and RV11-RV15 previously hydrolized, unit assumed
smiles,measurement,setting,value
CC(=O)N[C@@H](CS)C(=O)O [acetylcysteine],action with respect to the activity of antibiotics,[1],inhibiting action with respect to the activity of antibiotics
"CCC(=O)O[C@H]1[C@H](O[C@@H]2[C@@H](C)[C@H](O[C@H]3C[C@@](C)(OC)[C@@H](O)[C@H](C)O3)[C@@H](C)C(=O)O[C@H](CC)[C@@](C)(O)[C@H](O)[C@@H](C)C(=O)[C@H](C)C[C@@]2(C)O)O[C@H](C)C[C@@H]1N(C)C [erythromycin estolate, reference compound]",MIC,E. cloacae SS 07,> 200 µg/mL
same,MIC,S. heidelberg SS 18,100 µg/mL
same,concentration at 0.3 h,in vivo,680 ng/mL
same,concentration at 1 h,in vivo,1740 ng/mL
same,concentration at 2 h,in vivo,2490 ng/mL
same,concentration at 3 h,in vivo,1490 ng/mL
same,concentration at 4 h,in vivo,610 ng/mL
same,concentration at 5 h,in vivo,370 ng/mL
same,MIC,E. aerogenes SS 011,50 µg/mL
same,MIC,Citrobacter SS 09,> 200 µg/mL
same,MIC,B. subtilis SS 127,0.025 µg/mL
same,MIC,[2],3 µg/mL
same,bronchial epithelium reaction,[3],"the bronchial epithelium reacts through a proliferation of cells, mainly cup-shaped cells"
same,histological appearance of obstructed bronchial tract,[3]; obstructed,the bronchial obstruction is formed by abundant mucus admixed with fibrin
same,MIC,Staph. albus SS 03,0.05 µg/mL
same,MIC,Cl. tetani SS 17,0.2 µg/mL
same,MIC,S. infantis SS 08,100 µg/mL
same,MIC,E. coli SS 05,100 µg/mL
same,Partial obstruction (% incidence),[4],20%
same,"Total obstruction, compact plug (% incidence)",[4],46.66%
same,"Total obstruction, nodular mass (% incidence)",[4],20%
same,"Total obstruction, pimply mass (% incidence)",[4],6.66%
same,MIC,C. diphtheriae SS 19,0.025 µg/mL
same,MIC,Kl. pneumoniae SS 04,100 µg/mL
same,MIC,H. tubercolosis SS 03,50 µg/mL
same,MIC,B. anthranis SS 09,0.4 µg/mL
same,ED50,D. pneumoniae SS 23 [5],128 mg/kg
same,MIC,N. gonorreae SS 27,0.8 µg/mL
same,MIC,Staph. aureus SS 08,0.025 µg/mL
same,MIC,H. pertussis SS 03,0.4 µg/mL
same,MIC,Kl. aerogenes SS 71,100 µg/mL
same,MIC,D. pneumoniae SS 23 [6],0.05 µg/mL
same,MIC,H. influentiae SS 02,1.5 µg/mL
same,MIC,Pr. mirabilis SS 09,> 200 µg/mL
same,MIC,C. albicans SS 04,200 µg/mL
same,MIC,Strept. faecalis SS 19,0.1 µg/mL
same,MIC,B. subtilis ATCC 6633,0.01 µg/mL
same,MIC,E. coli SS 07,50 µg/mL
same,MIC,Staph. aureus SS 09,0.05 µg/mL
same,MIC,Sr. marcescens SS 03,> 200 µg/mL
same,MIC,E. coli SS 06,50 µg/mL
same,Hematic levels in the healthy volunteer,"[7]; 0.30 hours, 18 min",0.27 µg/mL
same,Hematic levels in the healthy volunteer,"[7]; 1 hour, 60 min",0.58 µg/mL
same,concentration at 2 h,"[7]; human, blood, po, 500 mg, 2 hours",2100 ng/mL
same,concentration at 3 h,"[7]; human, blood, po, 500 mg, 3 hours",1410 ng/mL
same,concentration at 4 h,"[7]; human, blood, po, 500 mg, 4 hours",1310 ng/mL
same,MIC,N. meningitidis SS 04,1.5 µg/mL
same,MIC,Staph. albus SS 04,0.05 µg/mL
same,ED50,Staph. aureus SS 07,2.2 mg/kg
same,MIC,Pr. vulgaris SS 10,> 200 µg/mL
same,MIC,S. lutea ATCC 9341,0.01 µg/mL
same,MIC,Br. melitensis SS 19,3 µg/mL
same,MIC,[8],3 µg/mL
same,MIC,Citrobacter SS 05,> 200 µg/mL
same,MIC,Br. abortus SS 7,6 µg/mL
same,MIC,Ps. aeruginosa SS 10,100 µg/mL
same,MIC,E. coli SS 04,100 µg/mL
same,Hematic levels in the rat,[9],0.04 µg/mL
same,MIC,B. cereus ATCC 11778,0.8 µg/mL
same,MIC,B. anthranis SS 08,0.4 µg/mL
